Tested on: 186277-243-T-J2-PDC complex spheroid viability
Assay: Anticancer human tumor 186277-243-T-J2-PDC patient-derived colon adenocarcinoma cell line growth inhibition [POLQ]
Details: for IC50: curve of first compound; for viability, T/C: stronger effect = lower value
Method: Multicellular complex tumor spheroid response to Polymerase (POL) inhibitors (novobiocin, ART-558, RP6685) in combination with a variety of drugs and investigational agents in selected tumor cell lines
The POL inhibitors (novobiocin, ART-558, and RP6685) were evaluated both individually and in combination with standard of care and investigational anticancer small molecules within a complex spheroid model of solid tumors. . Complex spheroids include a stromal component modeled by human endothelial cells (HUVEC) and fibroblasts modeled by human mesenchymal stem cells (MSCs). The concentration ranges selected for each drug and investigational agent were based upon clinically achievable concentrations if the clinical Cmax of the agent was known.
Compounds. The drugs and investigational agents: novobiocin (NSC847541), ART-558 (NSC835418), RP-6685 (NSC848927), peposertib (NSC802822), ceralasertib (NSC780249), elimusertib (NSC800525), camonsertib (NSC841442), AZD-1390 (NSC803789), olaparib (NSC753686), talazoparib (NSC767125), rucaparib (NSC756644), sotorasib (NSC818433), MRTX-1133 (NSC836407), SN-38 (NSC673596), topotecan (NSC609699), epotoside (NSC141540), doxorubicin (NSC123127), gemcitabine (NSC613327), 5-fluorouracil (NSC19893), paclitaxel (NSC125973), vemurafenib (NSC761431), MSA-2 (NSC828583), SN-011 (NSC837082), adavosertib (NSC754352), prexasertib (NSC758257), carboplatin (NSC241240) and oxaliplatin (NSC266046), were obtained from the National Cancer Institute (NCI) Developmental Therapeutics Program Chemical Repository (21). The FDA-approved anticancer drug set is available from the Developmental Therapeutics Program at https://dtp.cancer.gov/organization/dscb/obtaining/. […] The stock solutions were prepared in dimethyl sulfoxide (DMSO, Sigma-Aldrich, St. Louis, MO, cat. D2650), except for the platinum compounds which were prepared in saline (Quality Biological, Gaithersburg, MD, cat. 114-055-101), at 800-fold the tested concentration and stored at -70 degrees C prior to their use. All drugs and investigational agents were tested over a range starting from a high concentration at or near the clinical Cmax and decreasing in half-log increments. If the clinical Cmax for an agent had not been determined, the highest concentration tested was 10 microM, except for SN-38, which was tested at a high concentration of 1 microM.
Cell Culture. All cells were maintained in an incubator at 37 degrees C and 5% CO2 with 95% humidity. The PDC lines were cultured according to standard operating procedures established by the NCI PDMR (https://pdmr.cancer.gov). Table 3 of the manuscript, lists the cell lines along with the number of the three cell types plated to form the mct-spheroids and media for tumor cell growth. After thawing, all PDC lines, except 997537-175-T-J1-PDC and 415267-285-R-J2-PDC, were cultured in Matrigel-coated flasks prepared with a working solution of 1X Ham's F-12 nutrient mix, without supplementation (Thermo Fisher Scientific, cat. 11765054), 100 U/mL penicillin-streptomycin (Thermo Fisher Scientific, cat. 15140122), and 2.5% Matrigel (Corning Inc., Corning, NY, cat. 354248) for the first three passages. The two PDC lines 997537-175-T-J1-PDC and 415267-285-R-J2-PDC were cultured on uncoated flasks. The 857933-349-R-J2-PDC line was cultured in 6C/Colon 1B media containing advanced DMEM/F-12 (Thermo Fisher Scientific, cat. 12634028), 10 mM HEPES (Thermo Fisher Scientific, cat. 15630080), 1X GlutaMAX supplement (Thermo Fisher Scientific, cat. 35050061), 0.1 mg/mL primocin (InvivoGen, San Diego, CA, cat. ant-pm-2), 10% defined fetal bovine serum, heat inactivated (HyClone Laboratories Inc., Logan, UT, cat. SH30070.03HI), 50% L-WRN conditioned media (ATCC, cat. CRL-3276), 1.25 mM N-Acetyl-L-cysteine (Sigma-Aldrich, cat. A9165), 10 mM nicotinamide (Sigma-Aldrich, cat. N0636), 1X B-27 supplement (Thermo Fisher Scientific, cat. 17504044), 1X N-2 supplement (Thermo Fisher Scientific, cat. […]

[1] = second compound 0.0316 µM, first compound 0.0316 µM
[2] = second compound 0.0316 µM, first compound 0.1 µM
[3] = second compound 0.0316 µM, first compound 0.316 µM
[4] = second compound 0.0316 µM, first compound 1 µM
[5] = second compound 0.0316 µM, first compound 3.16 µM
[6] = second compound 0.0316 µM, first compound 10 µM
[7] = second compound 0.1 µM, first compound 0.0316 µM
[8] = second compound 0.1 µM, first compound 0.1 µM
[9] = second compound 0.1 µM, first compound 0.316 µM
[10] = second compound 0.1 µM, first compound 1 µM
[11] = second compound 0.1 µM, first compound 3.16 µM
[12] = second compound 0.1 µM, first compound 10 µM
[13] = second compound 0.316 µM, first compound 0.0316 µM
[14] = second compound 0.316 µM, first compound 0.1 µM
[15] = second compound 0.316 µM, first compound 0.316 µM
[16] = second compound 0.316 µM, first compound 1 µM
[17] = second compound 0.316 µM, first compound 3.16 µM
[18] = second compound 0.316 µM, first compound 10 µM
[19] = second compound 1 µM, first compound 0.0316 µM
[20] = second compound 1 µM, first compound 0.1 µM
[21] = second compound 1 µM, first compound 0.316 µM
[22] = second compound 1 µM, first compound 1 µM
[23] = second compound 1 µM, first compound 3.16 µM
[24] = second compound 1 µM, first compound 10 µM
[25] = second compound 3.16 µM, first compound 0.0316 µM
[26] = second compound 3.16 µM, first compound 0.1 µM
[27] = second compound 3.16 µM, first compound 0.316 µM
[28] = second compound 3.16 µM, first compound 1 µM
[29] = second compound 3.16 µM, first compound 3.16 µM
[30] = second compound 3.16 µM, first compound 10 µM
[31] = second compound 10 µM, first compound 0.0316 µM
[32] = second compound 10 µM, first compound 0.1 µM
[33] = second compound 10 µM, first compound 0.316 µM
[34] = second compound 10 µM, first compound 1 µM
[35] = second compound 10 µM, first compound 3.16 µM
[36] = second compound 10 µM, first compound 10 µM
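Further: spheroids exposed to compounds for seven days.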
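Wherever viability, T/C is given: 100% = DMSO vehicle control viability.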

For `CC1COCCN1c1cc(C2(O)CC3CCC(C2)O3)c2cnn(-c3ccn[nH]3)c2n1` (centres undefined) + Cc1cccc(N(C)C(=O)C2C(O)CCN2c2nc(C)cc(C(F)(F)F)c2C#N)c1, the IC50 (second compound 0.0316 µM) was 43.3 nM, the IC50 (second compound 0.1 µM) was 42.2 nM and the IC50 (second compound 0.316 µM) was 44 nM. For the same molecule, the IC50 (second compound 1 µM) was 42.6 nM, the IC50 (second compound 3.16 µM) was 37.7 nM and the IC50 (second compound 10 µM) was less than 31.6 nM. It also gave a viability, T/C [1] of 64.5%, a viability, T/C [2] of 11.7% and a viability, T/C [3] of 6.18%. For the same molecule, the viability, T/C [4] was 3.85%, the viability, T/C [5] was 4.2% and the viability, T/C [6] was 4.79%. It also gave a viability, T/C [7] of 63.9%, a viability, T/C [8] of 8.95% and a viability, T/C [9] of 5.9%. The viability, T/C [10] was 3.73%, the viability, T/C [11] was 3.97% and the viability, T/C [12] was 3.76%. It also gave a viability, T/C [13] of 65.4%, a viability, T/C [14] of 12.1% and a viability, T/C [15] of 4.75%. The viability, T/C [16] was 3.38%, the viability, T/C [17] was 4.54% and the viability, T/C [18] was 3.64%. The viability, T/C [19] was 63.3%, the viability, T/C [20] was 12.2% and the viability, T/C [21] was 5.42%. For the same molecule, the viability, T/C [22] was 3.92%, the viability, T/C [23] was 4.12% and the viability, T/C [24] was 4.45%. It also gave a viability, T/C [25] of 57.4%, a viability, T/C [26] of 9.6% and a viability, T/C [27] of 5.36%. For the same molecule, the viability, T/C [28] was 3.46%, the viability, T/C [29] was 4.49% and the viability, T/C [30] was 4.05%. The viability, T/C [31] was 45.9%, the viability, T/C [32] was 8.7% and the viability, T/C [33] was 4.15%. The viability, T/C [34] was 3.16%, the viability, T/C [35] was 4.29% and the viability, T/C [36] was 3.09%.

Molecule `O=C(Nc1ccc(O)c(NS(=O)(=O)c2ccc(F)cc2)c1)c1ccc(-c2ccccc2)cc1` + Cc1cccc(N(C)C(=O)C2C(O)CCN2c2nc(C)cc(C(F)(F)F)c2C#N)c1 has an IC50 (second compound 0.0316 µM) greater than 10000 nM, an IC50 (second compound 0.1 µM) greater than 10000 nM and an IC50 (second compound 0.316 µM) greater than 10000 nM. The IC50 (second compound 1 µM) was greater than 10000 nM, the IC50 (second compound 3.16 µM) was greater than 10000 nM and the IC50 (second compound 10 µM) was greater than 10000 nM. The viability, T/C [1] was 93.9%, the viability, T/C [2] was 98.5% and the viability, T/C [3] was 108%. It also gave a viability, T/C [4] of 86.1%, a viability, T/C [5] of 116% and a viability, T/C [6] of 107%. It also gave a viability, T/C [7] of 108%, a viability, T/C [8] of 102% and a viability, T/C [9] of 104%. The viability, T/C [10] was 88.9%, the viability, T/C [11] was 108% and the viability, T/C [12] was 105%. The viability, T/C [13] was 86.6%, the viability, T/C [14] was 106% and the viability, T/C [15] was 110%. The viability, T/C [16] was 103%, the viability, T/C [17] was 102% and the viability, T/C [18] was 108%. The viability, T/C [19] was 95%, the viability, T/C [20] was 111% and the viability, T/C [21] was 103%. The viability, T/C [22] was 104%, the viability, T/C [23] was 107% and the viability, T/C [24] was 109%. For the same molecule, the viability, T/C [25] was 102%, the viability, T/C [26] was 94.8% and the viability, T/C [27] was 102%. The viability, T/C [28] was 90.8%, the viability, T/C [29] was 103% and the viability, T/C [30] was 112%. The viability, T/C [31] was 100%, the viability, T/C [32] was 106% and the viability, T/C [33] was 86.7%. For the same molecule, the viability, T/C [34] was 95.2%, the viability, T/C [35] was 107% and the viability, T/C [36] was 115%.

Reference: PubChem BioAssay AID1963854 (Molecular Pharmacology Branch, DTP, NCI, 2024)
